Several values for one entry are separate records, joined by “and”; a condition that tells them apart may be missing. Equal values may be shown once.
Key:
[1] = tested on: Rattus norvegicus; settings: oral, gavage
[2] = tested on: Rattus norvegicus; settings: M/F; for LEL / NOEL: oral
[3] = tested on: Rattus norvegicus
[4] = tested on: Rattus norvegicus; settings: subchronic; duration: 8 weeks; oral; gavage; M; Sprague-Dawley; reproductive
[5] = tested on: Mus musculus
[6] = tested on: Canidae; settings: chronic; duration: 1 years; oral; diet; M/F; Dog Other; tremors
[7] = tested on: Rattus norvegicus; settings: oral
[8] = tested on: Rattus norvegicus; settings: short-term
[9] = reproduction developmental, inhalation, increased liver weight in p1 males
[10] = chronic, duration: 2 years, diet, glomerulonephritis, atrophic testes, eye keratitis reduced body weight and organ weight
[11] = chronic, duration: 2 years, diet, reduced body weight
[12] = subchronic, gavage, liver toxicity
[13] = Hershberger, duration: 7 days, gavage, Sprague-Dawley, active + Antiandrogenic + anti-androgenic + no AST effects in pairwise comparison but increasing trend for LABC and DL prostate / …
[14] = acute, duration: 1 hours, oral, gavage, M, inhibition of acetic acid-induced writhing response
[15] = duration: 3 days, injection, subcutaneous, F, Sprague-Dawley, uterus: absolute blotted uterine weight
[16] = duration: 4 days, oral, gavage, F, Wistar, female reproductive system: vaginal cornification + uterus: uterine wet weight (relative)
[17] = duration: 4 days, oral, gavage, F, Wistar, uterus: uterine dry weight (relative)
[18] = duration: 10 days, oral, gavage, M, BrlHan:WIST, body weight + spontaneous locomotion
[19] = duration: 10 days, oral, gavage, M, BrlHan:WIST, male accessory sex gland: relative bulbourethral gland weight in the presence of TP
[20] = duration: 28 days, oral, gavage, F, Crj:CD, kidney: kidney weight
[21] = duration: 28 days, oral, gavage, F, Crj:CD, liver: liver weight + thymus: serum T3
[22] = duration: 28 days, oral, gavage, M, Crj:CD, body weight + brain: brain weight + food consumption + liver: liver weight + testis: testes weight + thymus: serum T3 + thymus: serum T4 + …

Clc1ccc(Cl)cc1 [1,4-Dichlorobenzene]
NOEL ([1]; subchronic, duration: 13 weeks, M/F, Fischer 344, Deaths + Clinical Observation: Tremors Poor motor response Ocular discharge + Body Weight Changes: decrease + Urinalysis: Coproporphyrin …): < 300 mg/kg-day
LOAEL [2, 9]: 902 mg/m3
NOAEL [2, 9]: 301 mg/m3
NOAEL ([3]; chronic, inhalation, intermittent, Liver: Increased weight in male parents): 75 mg/m3

Cn1cc(-c2ccccc2)c(=O)c(-c2cccc(C(F)(F)F)c2)c1 [1-Methyl-3-phenyl-5-(3-(trifluoromethyl)phenyl)-4-pyridone]
LEL [2, 10]: 25 mg/kg-day
NOEL [2, 10]: 8 mg/kg-day
NOEL ([3]; chronic, duration: 2 years, oral, diet, Kidney: Glomerulonephritis + Organs: Decreased weight + Testis: Atrophy + Whole body: Decreased weight): 15.6 mg/kg-day

Brc1ccc(Oc2ccc(Br)cc2Br)c(Br)c1 [2,2',4,4'-Tetrabromodiphenyl ether]
LOAEL [4]: 0.001 mg/kg-day
LOEL ([5]; developmental, oral, M/F, C57BL/6, generation: F1, F1: Morris water maze (swim speed, first trial) + F1: Morris water maze (swim speed, last trial) + F1: Morris water maze (swim speed, middle…): 1 mg/kg-day
LOEL ([5]; reproduction developmental, oral, F, C57BL/6, generation: P0, P0: Morris water maze (latency, first trial)): 0.03 mg/kg-day

CC(C)Nc1nc(Cl)nc(NC(C)C)n1 [2,4-Bis(isopropylamino)-6-chloro-1,3,5-triazine]
LEL [2, 11]: 50 mg/kg-day
NOEL [2, 11]: 5 mg/kg-day
NOEL ([3]; chronic, duration: 2 years, oral, diet, Whole body: Decreased weight gain): 5 mg/kg-day

O=C(O)CC(F)(F)C(F)(F)C(F)(F)C(F)(F)C(F)(F)C(F)(F)F [2-(Perfluorohexyl)ethanoic acid]
NOAEL ([5]; short-term, duration: 28 days, oral, gavage, M, CD1, Liver: Alanine Aminotransferase (ALT) + Liver: Albumin (A) + Liver: Alkaline Phosphatase (ALP) + Liver: Aspartate Aminotransferase (AST) + …): 5 mg/kg-day
LOAEL ([5]; short-term, duration: 28 days, oral, gavage, M, CD1, Liver: Total Cholesterol (CHOL)): 5 mg/kg-day

CCNc1nc(NC(C)C)nc(SC)n1 [Ametryn]
LEL [2, 12]: 100 mg/kg-day
NOEL [2, 12]: 8.6 mg/kg-day and 10 mg/kg-day
NOEL ([3]; subchronic, duration: 13 weeks, oral, gavage, Liver: Effects): 10 mg/kg-day

[Be] [Beryllium]
NOAEL ([3]; chronic, oral, drinking water, None Observed): 0.54 mg/kg-day

Cc1c(COC(=O)[C@@H]2[C@H](/C=C(\Cl)C(F)(F)F)C2(C)C)cccc1-c1ccccc1 [Bifenthrin]
NOEL ([1]; short-term, duration: 28 days, M/F, Clinical Observation: Tremor): 50 ppm
LEL [6]: 3 mg/kg-day
NOEL [6]: 1.5 mg/kg-day
LOEL [7, 13]: 13.5 mg/kg-day
NOEL [7, 13]: 10 mg/kg-day
NOEL ([7]; Hershberger, duration: 10 days, gavage, Sprague-Dawley, inactive + Negative + Negative + neither + negative): 10 mg/kg-day
LEL ([7]; uterotrophic, duration: 3 days, Active): 13.2 mg/kg-day

Oc1ccc(Cc2ccc(O)cc2)cc1 [Bis(4-hydroxyphenyl)methane]
NOEL ([1]; short-term, duration: 28 days, F, CD(SD), Clinical Observation: Decreased locomotor activity Soiled fur Soft stool + Body Weight Changes: decrease + Food Consumption: decrease + …): < 20 mg/kg-day
NOEL ([1]; short-term, duration: 28 days, M, CD(SD), Clinical Observation: Decreased locomotor activity Soiled fur Soft stool + Body Weight Changes: decrease + Food Consumption: decrease + …): 20 mg/kg-day
LOEL ([5]; acute, duration: 1 hours, dermal, M, inhibition of arachidonic acid-induced ear edema): 0.25 mg/ear
LOEL [5, 14]: 25 mg/kg-day
NOEL [5, 14]: 12.5 mg/kg-day
LOEL ([8]; duration: 3 days, injection, subcutaneous, F, Crj:CD, uterus: uterine dry weight (absolute) + uterus: uterine dry weight (relative) + uterus: uterine wet weight (absolute) + uterus: uterine wet …): 100 mg/kg-day
LOEL [8, 15]: 200 mg/kg-day
NOEL [8, 15]: 20 mg/kg-day
LOEL [8, 16]: 100 mg/kg-day
NOEL [8, 16]: 50 mg/kg-day
LOEL [8, 17]: 200 mg/kg-day
NOEL [8, 17]: 100 mg/kg-day
LOEL ([8]; duration: 5 days, injection, subcutaneous, F, Wistar, uterus: uterine dry weight (relative)): 0.5 mg/day
LOEL [8, 18]: 1000 mg/kg-day
NOEL [8, 18]: 200 mg/kg-day
NOEL ([8]; duration: 10 days, oral, gavage, M, BrlHan:WIST, body weight in the presence of TP + body weight the absence of TP + male accessory sex gland: relative bulbourethral gland weight in the …): 1000 mg/kg-day
NOEL ([8]; duration: 10 days, oral, gavage, M, BrlHan:WIST, male accessory sex gland: BC/LA weight (relative) + male accessory sex gland: Cowper's gland weight (relative) + male accessory sex gland: …): 1000 mg/kg-day
LOEL [8, 19]: 200 mg/kg-day
NOEL [8, 19]: 50 mg/kg-day
LOEL ([8]; duration: 28 days, oral, gavage, F, Crj:CD, body weight + brain: brain weight + food consumption + thymus: serum T4): 20 mg/kg-day
LOEL [8, 20]: 100 mg/kg-day
NOEL [8, 20]: 20 mg/kg-day
LOEL [8, 21]: 500 mg/kg-day
NOEL [8, 21]: 100 mg/kg-day
LOEL [8, 22]: 500 mg/kg-day
NOEL [8, 22]: 100 mg/kg-day

From EPA's ToxValDB 9.5
